Patent US20250230193A1, “CYCLIC COMPOUND HAVING SELECTIVE KRAS INHIBITORY EFFECT ON HRAS AND NRAS” (CHUGAI SEIYAKU KABUSHIKI KAISHA, priority 2022, published 2025)
Where a SMILES comes first, the peptide text is derived from it. Bridges are numbered along the chain shown (N, C = ends). [ ]: non-standard residue; d: D form. The star is where a group is joined. ξ: configuration not given here. hPhe(3-Cl-4-CF3) = N[C@@H](CCc1ccc(C(F)(F)F)c(Cl)c1)C(=O)O; NPrPhe(4-CF3) = CCCN[C@@H](Cc1ccc(C(F)(F)F)cc1)C(=O)O; NMeGly(cPent) = CN[C@H](C(=O)O)C1CCCC1; NEtLeu = CCN[C@@H](CC(C)C)C(=O)O; NMeD = CN[C@@H](CC(=O)O)C(=O)O; NMeL = CN[C@@H](CC(C)C)C(=O)O; NEtAla = CCN[C@@H](C)C(=O)O; ξNMeD = CNC(CC(=O)O)C(=O)O; Morpholide = C1CN(*)CCO1; NMeA = CN[C@@H](C)C(=O)O; dNMeA = CN[C@H](C)C(=O)O; Ac5c = NC1(C(=O)O)CCCC1; Aze = O=C(O)[C@@H]1CCN1; ξP = O=C(O)C1CCCN1; Sar = CNCC(=O)O

Columns and labels:
[1] = biological target: GDP-bound NRAS wild-type protein (Homo sapiens, UniProt P01111); assay: Binding to NRAS by surface plasmon resonance (SPR), Single Cycle Kinetics; conditions: KD ratio NRAS/KRAS, SPR
[2] = biological target: GDP-bound HRAS wild-type protein (Homo sapiens, UniProt P01112); assay: Binding to HRAS by surface plasmon resonance (SPR), Single Cycle Kinetics; conditions: KD ratio HRAS/KRAS, SPR
Sequence of GDP-bound HRAS wild-type protein (P01112 whole entry): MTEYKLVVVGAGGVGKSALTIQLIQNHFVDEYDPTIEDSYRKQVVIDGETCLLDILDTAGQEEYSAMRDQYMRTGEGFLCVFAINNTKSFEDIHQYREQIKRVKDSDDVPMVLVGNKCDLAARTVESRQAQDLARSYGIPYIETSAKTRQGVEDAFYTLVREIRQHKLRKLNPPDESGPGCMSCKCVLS

Sequence of GDP-bound NRAS wild-type protein (P01111 whole entry): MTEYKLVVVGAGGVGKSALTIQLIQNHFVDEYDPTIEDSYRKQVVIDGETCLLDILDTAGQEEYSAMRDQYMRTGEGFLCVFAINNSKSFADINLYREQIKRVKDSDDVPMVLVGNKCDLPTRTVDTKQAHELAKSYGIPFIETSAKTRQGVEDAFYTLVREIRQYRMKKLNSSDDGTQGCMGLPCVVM

CCCN1C(=O)CN(C)C(=O)CN(C)C(=O)[C@H]([C@@H](C)CC)NC(=O)[C@H](CC(C)C)N(C)C(=O)C[C@@H](C(=O)N2CCOCC2)N(C)C(=O)[C@H](C2CCCC2)N(C)C(=O)C2(CCCC2)NC(=O)[C@@H]2CCCN2C(=O)[C@H](CCc2ccc(C(F)(F)F)c(Cl)c2)NC(=O)[C@@H](C)N(C)C(=O)[C@@H]1Cc1ccc(C(F)(F)F)cc1 [PP0148] ([NMeL]I[Sar][Sar][NPrPhe(4-CF3)][dNMeA][hPhe(3-Cl-4-CF3)]P[Ac5c][NMeGly(cPent)][NMeD]-Morpholide; lactam N-11) was tested, and the “NRAS/KRAS (ratio of KD for GDP-bound NRAS wild-type to KD for KRAS)” value [1] was “B (a compound having 3 or more and less than 10 is denoted as B)” and the “HRAS/KRAS (ratio of KD for GDP-bound HRAS wild-type to KD for KRAS)” value [2] was “B (a compound having 3 or more and less than 10 is denoted as B)”.

With CCCN1C(=O)CN(C)C(=O)CN(C)C(=O)[C@H]([C@@H](C)CC)NC(=O)[C@H](CC(C)C)N(C)C(=O)CC(C(=O)N2CCOCC2)N(C)C(=O)[C@H](C2CCCC2)N(C)C(=O)C2(CCCC2)NC(=O)[C@@H]2CCCN2C(=O)[C@H](CCc2ccc(C(F)(F)F)c(Cl)c2)NC(=O)C2CCCN2C(=O)[C@@H]1Cc1ccc(C(F)(F)F)cc1 (stereo partly drawn) [PP0149] ([NMeL]I[Sar][Sar][NPrPhe(4-CF3)][ξP][hPhe(3-Cl-4-CF3)]P[Ac5c][NMeGly(cPent)][ξNMeD]-Morpholide; lactam N-11) the “NRAS/KRAS (ratio of KD for GDP-bound NRAS wild-type to KD for KRAS)” value [1] was “C (A compound having a KD ratio of 0.1 or more and less than 3 is denoted as C)” and the “HRAS/KRAS (ratio of KD for GDP-bound HRAS wild-type to KD for KRAS)” value [2] was “B (a compound having 3 or more and less than 10 is denoted as B)”.

For CCCN1C(=O)CN(C)C(=O)CN(C)C(=O)[C@H]([C@@H](C)CC)NC(=O)[C@H](CC(C)C)N(C)C(=O)C[C@@H](C(=O)N2CCOCC2)N(C)C(=O)[C@H](C2CCCC2)N(C)C(=O)[C@@H](C)NC(=O)[C@@H]2CCCN2C(=O)[C@H](CCc2ccc(C(F)(F)F)c(Cl)c2)NC(=O)CN(C)C(=O)[C@@H]1Cc1ccc(C(F)(F)F)cc1 [PP0150] ([NMeL]I[Sar][Sar][NPrPhe(4-CF3)][Sar][hPhe(3-Cl-4-CF3)]P[dA][NMeGly(cPent)][NMeD]-Morpholide; lactam N-11), the “NRAS/KRAS (ratio of KD for GDP-bound NRAS wild-type to KD for KRAS)” value [1] was “B (a compound having 3 or more and less than 10 is denoted as B)” and the “HRAS/KRAS (ratio of KD for GDP-bound HRAS wild-type to KD for KRAS)” value [2] was “C (A compound having a KD ratio of 0.1 or more and less than 3 is denoted as C)”.

In the case of CCCN1C(=O)[C@@H]2CCN2C(=O)[C@H](C)N(C)C(=O)[C@H]([C@@H](C)CC)NC(=O)[C@H](CC(C)C)N(CC)C(=O)C[C@@H](C(=O)N2CCOCC2)N(C)C(=O)[C@H](C2CCCC2)N(C)C(=O)C2(CCCC2)NC(=O)[C@@H]2CCCN2C(=O)[C@H](CCc2ccc(C(F)(F)F)c(Cl)c2)NC(=O)CN(C)C(=O)[C@@H]1Cc1ccc(C(F)(F)F)cc1 [PP0151] ([NEtLeu]I[NMeA][Aze][NPrPhe(4-CF3)][Sar][hPhe(3-Cl-4-CF3)]P[Ac5c][NMeGly(cPent)][NMeD]-Morpholide; lactam N-11), the “NRAS/KRAS (ratio of KD for GDP-bound NRAS wild-type to KD for KRAS)” value [1] is reported as “C (A compound having a KD ratio of 0.1 or more and less than 3 is denoted as C)” and the “HRAS/KRAS (ratio of KD for GDP-bound HRAS wild-type to KD for KRAS)” value [2] is reported as “C (A compound having a KD ratio of 0.1 or more and less than 3 is denoted as C)”.

In the case of CCCN1C(=O)[C@@H]2CCN2C(=O)[C@H](C)N(CC)C(=O)[C@H]([C@@H](C)CC)NC(=O)[C@H](CC(C)C)N(C)C(=O)C[C@@H](C(=O)N2CCOCC2)N(C)C(=O)[C@H](C2CCCC2)N(C)C(=O)C2(CCCC2)NC(=O)[C@@H]2CCCN2C(=O)[C@H](CCc2ccc(C(F)(F)F)c(Cl)c2)NC(=O)CN(C)C(=O)[C@@H]1Cc1ccc(C(F)(F)F)cc1 [PP0152] ([NMeL]I[NEtAla][Aze][NPrPhe(4-CF3)][Sar][hPhe(3-Cl-4-CF3)]P[Ac5c][NMeGly(cPent)][NMeD]-Morpholide; lactam N-11), the “NRAS/KRAS (ratio of KD for GDP-bound NRAS wild-type to KD for KRAS)” value [1] is reported as “C (A compound having a KD ratio of 0.1 or more and less than 3 is denoted as C)” and the “HRAS/KRAS (ratio of KD for GDP-bound HRAS wild-type to KD for KRAS)” value [2] is reported as “B (a compound having 3 or more and less than 10 is denoted as B)”.

For CCCN1C(=O)[C@@H]2CCN2C(=O)[C@H](C)N(C)C(=O)[C@H]([C@@H](C)CC)NC(=O)[C@H](CC(C)C)N(C)C(=O)C[C@@H](C(=O)N2CCOCC2)N(C)C(=O)[C@H](C2CCCC2)N(C)C(=O)C2(CCCC2)NC(=O)[C@H](C)NC(=O)[C@H](CCc2ccc(C(F)(F)F)c(Cl)c2)NC(=O)CN(C)C(=O)[C@@H]1Cc1ccc(C(F)(F)F)cc1 [PP0153] ([NMeL]I[NMeA][Aze][NPrPhe(4-CF3)][Sar][hPhe(3-Cl-4-CF3)]A[Ac5c][NMeGly(cPent)][NMeD]-Morpholide; lactam N-11), the “NRAS/KRAS (ratio of KD for GDP-bound NRAS wild-type to KD for KRAS)” value [1] was “C (A compound having a KD ratio of 0.1 or more and less than 3 is denoted as C)” and the “HRAS/KRAS (ratio of KD for GDP-bound HRAS wild-type to KD for KRAS)” value [2] was “C (A compound having a KD ratio of 0.1 or more and less than 3 is denoted as C)”.
